One may read the EC50 as the concentration that produces a half-maximal response. A higher EC50 goes with lower potency in that assay. The IC50 is the concentration that inhibits the measured activity by half.

Data on one compound can be found in paper PMC5700161, “Structure of human immunoproteasome with a reversible and noncompetitive inhibitor that selectively inhibits activated lymphocytes” (Nature Communications, 2017).

One series concerns MM.1S cells. The series can be described thus: Cytotoxicity, CellTiter-glo, MM.1S. The note with it: 72 h. Type of series: cell-based. The method, then: (§1) Fig. 4 Intracellular proteasome inhibition by PKS21221 and its cytotoxicity against transformed cell lines. a Karpas 1106P lymphoma cells (white and black symbols) or HepG2 cells (blue symbols) were treated with PKS21221 for 2 h at the concentrations indicated prior to incubation with substrate (Ac-ANW)2R110 for β5i (Karpas cells) or suc-LLVY-luciferin for β5 (Karpas cells and HepG2 cells). […] Cell viability was determined by CellTiter-glo. Data are means ± SEM of three to four independent experiments
(§2) We incubated MM.1S, RPMI 8226, Karpas and HepG2 cells with PKS21221 at different concentrations, and determined cell viability after 72 h (Fig. 4b).
(§3) We used Karpas 1106P B lymphoma cell line (Cat. No. 06072607, Aldrich)[15],[16],[52], HepG2 (HB-8065, ATCC), MM.1S (Cat. No. CRL-2974, ATCC). Cells were cultured at 37 °C in a humidified air/5% CO2 atmosphere in medium supplemented with 10% fetal bovine serum, except for the medium for Karpas 1106P cells which contained 20% fetal bovine serum, and 100 units per ml penicillin, 100 μg per ml streptomycin in RPMI 1640 medium. Karpas 1106P was used at 80,000 cells per well, MM.1S at 100,000 cells per well, and HepG2 at 12,000 cells per well. […] Viable cells were counted using Cell-titer Glo assay kit. EC50s were calculated using PRISM (Graphpad).
On the technique in general: Cellular ATP, detected with luciferase, serves as a proxy for viable cell number.

The target of series [1] is T1, β5i in Karpas 1106P cells (Homo sapiens, UniProt P20618+P28062).
T1 construct: host or cells: Karpas 1106P
The series is described as follows: Intracellular β5i activity in Karpas 1106P cells, (Ac-ANW)2-R110. It counts as cell-based. The method, then: (§4) To determine if this class of inhibitors is cell penetrable, we treated the B-cell lymphoma line Karpas 1106P[28] (expressing a high proportion of i-20S over c-20S) with PKS21221 before incubation with either (Ac-ANW)2-R110 (a specific substrate of β5i) or suc-LLVY-luciferin (a substrate of β5) (Fig. 4a). […] No β5i activity was detected in HepG2 cells using (Ac-ANW)2-R110 as a substrate.
(§5) Cell viability was determined by CellTiter-glo.
(§6) Intracellular proteasomal activity and inhibition assay were performed as reported. Karpas 1106P (80,000 cells per well) were plated and incubated with compound at indicated concentrations for 1 h at 37 °C. The activity of the overall β5 activity including β5i and β5c in each was measured in situ after compound removal with Proteasome-Glo assay kit according to manufacturer’s instructions. Luminescence was recorded on a SpectraMax M5 plate reader. Relative percentage of RLU was used to calculate the IC50s.

The target in a further series is β2c (Homo sapiens, UniProt Q99436). The series is described as follows: IC50 against β2c of human constitutive proteasome (Z-VLR-AMC). The note with it: read-out: IC50 2c - VLR (β2c); substrate Z-VLR-AMC.
The target of the next series is β1c (Homo sapiens, UniProt P28072). The series is described as follows: IC50 against β1c of human constitutive proteasome (Z-LLE-AMC). The note with it: read-out: IC50 1c - LLE (β1c); substrate Z-LLE-AMC.
In a further series the test system is CD19− cells. The series is described as follows: Apoptosis and viability of CD19− cells in ASC differentiation culture. It counts as cell-based. The method, then:
The immunoproteasome plays important roles in T cell differentiation and proliferation and dendritic cell activation and maturation[14],[20],[24]. However, its role in B cell differentiation is not well understood. […] Differentiated ASCs were then exposed to PKS21221 at indicated concentrations and cell survival was determined with Annexin V and 7-aminoactinomycin D (7-AAD) at three-time points (12-h, 24-h, and 48-h after treatment). […] In addition, the cytotoxicity of PKS21221 to different cell populations in PBMC was examined and compared to the cytotoxicity of bortezomib. PBMCs were incubated with PKS21221 or bortezomib, and the viability was assessed in T cells (CD3^+), B cells (CD19^+), monocytes (CD14^+) and dendritic cells (CD3^−CD19^−CD14^−CD16^−CD11c^+HLA-DR^+), respectively (Supplementary Fig. 13b–e).
PBMCs were cultured with or without IL-2/R848 for 5 days, followed by 12-h incubation with PKS21221 at different concentrations. a Representative flow cytometry plots of cells treated with IL-2 and R848 in the presence and absence of PKS21221. […] Annexin V^+7-AAD^− cells were referred as “Early apoptosis” population, and Annexin V^+7-AAD^+ cells were referred as “Dead” population. d Percentage of early apoptotic ASCs (left) and dead ASCs (right), after 12-h incubation with PKS21221. […]

Series [2] concerns β5(i+c) in Karpas 1106P cells. The series is described as follows: Intracellular β5(i+c) activity in Karpas 1106P cells, suc-LLVY-luciferin. Type of series: cell-based. The procedure: To determine if this class of inhibitors is cell penetrable, we treated the B-cell lymphoma line Karpas 1106P[28] (expressing a high proportion of i-20S over c-20S) with PKS21221 before incubation with either (Ac-ANW)2-R110 (a specific substrate of β5i) or suc-LLVY-luciferin (a substrate of β5) (Fig. 4a).
as §1

Another series addresses β1i (Homo sapiens, UniProt P28065). The series can be described thus: IC50 against β1i of human immunoproteasome (Ac-PAL-AMC). As to conditions: read-out: IC50 1i - PAL (β1i); substrate Ac-PAL-AMC.
The test system of another series is RPMI 8226 cells. The series can be described thus: Cytotoxicity, CellTiter-glo, RPMI 8226. It counts as cell-based. As to conditions: 72 h. The method, then: as §1, §2, §3
The target in another series is T2, β5c in HepG2 cells (Homo sapiens, UniProt P20618+P28074).
T2 construct: host or cells: HepG2
The series can be described thus: Intracellular β5c activity in HepG2 cells, suc-LLVY-luciferin. Type of series: cell-based. The procedure:
as §4, §5, §6

Method for β1c: (§7) IC50s of all compounds against β5i and β5c (Table 2) and against β1i, β2i, β1c, and β2c (Supplementary Table 1) were determined following reported methods[8].
Method for β1i: as §7
Method for β2c: as §7

`Cc1ccc(S(=O)(=O)N[C@@H](CC(=O)NC(C)(C)C)C(=O)NCCNC(=O)c2cc(-c3ccccc3F)ccc2F)cc1` [PKS21221]: the results for the EC50 in the series with MM.1S cells and in the series with RPMI 8226 cells were 78 ± 30 nM and 66 ± 6 nM, respectively. The IC50 in series [1] is 172 ± 33 nM; at β2c it was above 50000 nM; on β1c, above 50000 nM; in series [2] it was 118 ± 33 nM; at β1i, above 50000 nM; against β5c in HepG2 cells, 1830 ± 138 nM. Besides, the “apoptosis of CD19− cells” value in the series with CD19− cells is recorded as “no increase”. In the series with CD19− cells, the “viability of CD19− cells” value is “did not affect viability”.
